Test results published in patent publication US20260210939A1, “MODIFIED OLFACTORY RECEPTORS” (GIVAUDAN SA, priority 2022, published 2026).
Read-outs that look alike come from different tables or passages of the source.

Tests used:
[1] = target: human class II OR identified in the library screening (Homo sapiens, UniProt P34982)
Target sequence in this assay (P34982 whole entry, the tested form may be a part): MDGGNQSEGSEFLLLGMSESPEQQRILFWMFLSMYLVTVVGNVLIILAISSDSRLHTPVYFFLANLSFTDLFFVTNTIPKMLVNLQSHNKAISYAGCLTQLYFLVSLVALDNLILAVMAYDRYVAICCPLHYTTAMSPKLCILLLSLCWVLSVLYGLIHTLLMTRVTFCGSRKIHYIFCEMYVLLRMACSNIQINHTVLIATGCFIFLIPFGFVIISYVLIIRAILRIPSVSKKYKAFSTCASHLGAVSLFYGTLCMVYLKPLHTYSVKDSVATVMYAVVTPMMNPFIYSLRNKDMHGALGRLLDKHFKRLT
Description: (§1) Selected ligand—OR pairs were then tested in a confirmatory test with a dose response analysis.
(§2) For selected receptors, the wild-type sequence was synthesized and cloned into pcDNA3.1 (+). Dose-response analysis with the cognate ligand was then performed for both the wild-type and the modified sequence.

[2] = tested on: human class II OR identified in the library screening
Description: as §1, §2

[3] = target: human class II OR identified in the library screening (Homo sapiens, UniProt P34982); assay: Confirmatory dose-response analysis of library-hit OR with cognate ligand, wild-type vs C-terminal domain SEQ ID NO: 221 (Table 17); settings: read-out: Potency, EC50 changed C-term; OR1D2, modified C-terminus SEQ ID NO: 221 (SEQ ID NO: 336);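 also: Wild-type receptor sequences expressed from the pcDNA3.1(+) vector and compared with the C-terminally modified receptors in dose-response tests using each receptor's cognate ligand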
Target sequence in this assay (P34982 1-291): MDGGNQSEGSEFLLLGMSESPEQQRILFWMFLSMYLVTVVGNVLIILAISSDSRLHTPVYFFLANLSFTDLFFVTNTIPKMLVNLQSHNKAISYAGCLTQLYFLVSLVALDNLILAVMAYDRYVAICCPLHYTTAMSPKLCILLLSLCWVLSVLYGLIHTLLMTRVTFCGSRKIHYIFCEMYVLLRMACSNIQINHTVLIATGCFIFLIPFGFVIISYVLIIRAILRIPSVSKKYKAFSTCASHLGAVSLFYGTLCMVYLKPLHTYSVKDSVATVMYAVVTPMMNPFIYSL
Description: as §1, §2

[4] = tested on: human class II OR identified in the library screening; assay: as above; settings: for Fold improvement efficacy: maximal induction; for EC50: read-out: Potency, EC50 changed C-term; for Detection threshold; Fold improvement efficacy: under detection threshold
Description: as §1, §2

[5] = target: T1, OR7C1 (Homo sapiens, UniProt O76099, D296E/G302K/M297V/R299D/T295K/V126I); assay: CRE-luciferase assay, HEK293T cells expressing OR7C1 (wild-type / modified C-terminus); type: cell-based
T1 construct: Improved functional expression of modified OR-genes containing the truncated, optimized C-terminus; expressed in transfected cells; host or cells: HEK293T stably expressing human RTP1S(V227I) and RTP2(L220R)
T1 sequence (O76099 with tags, fused parts or gaps V126I/T295K/D296E/M297V/R299D/G302K): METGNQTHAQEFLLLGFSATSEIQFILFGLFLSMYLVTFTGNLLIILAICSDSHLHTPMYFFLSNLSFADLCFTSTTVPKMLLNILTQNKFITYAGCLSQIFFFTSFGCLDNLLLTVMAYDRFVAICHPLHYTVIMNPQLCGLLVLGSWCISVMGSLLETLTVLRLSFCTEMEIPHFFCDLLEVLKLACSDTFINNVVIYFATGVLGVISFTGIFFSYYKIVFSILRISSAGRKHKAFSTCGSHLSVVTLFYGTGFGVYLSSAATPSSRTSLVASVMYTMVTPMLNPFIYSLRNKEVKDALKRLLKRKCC
Excerpt: To test for possible variants of the sequence […]CC (SEQ ID NO: 86) leading to similar improved functional expression, different point mutations were introduced into the first 16 amino acids of this sequence (corresponding to […], SEQ ID NO: 10) and the variants were fused after the TM7 with OR7C1. […] The test concentrations were selected to fall into the range of partial activity of the wild-type sequence.

[6] = tested on: OR7A17 and OR7C1; assay: Cells expressing one or both of OR7A17 and OR7C1 (C-terminal domain SEQ ID NO: 221), luciferase; type: cell-based, human
Excerpt: In order to screen for a specific odor description, some or all members of a given set of OR which was identified to be specific for a given odor description as shown in example 25 can be combined in a screening for new odorants or new odorant mixtures. The screening on the different OR can be performed sequentially or in parallel assays with the individual OR of the OR set. Additionally, some or all of the OR of the OR set specific for the odor-description can also be co-expressed in a single cell line. Thus, to screen for woody-ambery molecules, cells were either separately or simultaneously transfected with two plasmids coding for the optimized OR7A17 and OR7C1 both with the C-terminal domain of SEQ ID NO: 221. […] Cells expressing both receptors become functional sensors for the Ambery-woody odor description and detect both ligands down to low concentrations.

[7] = target: T1, OR7C1; assay: CRE-luciferase assay, HEK293T cells expressing OR7C1 (wild-type / modified C-terminus); type: cell-based; remark: listed apart in the source
[8] = target: human class II OR identified in the library screening (Homo sapiens, UniProt A6NM03, Y28C)
Chain of human class II OR identified in the library screening (Homo sapiens, UniProt A6NM03, Y28C) (A6NM03 whole entry Y28C, the tested form may be a part): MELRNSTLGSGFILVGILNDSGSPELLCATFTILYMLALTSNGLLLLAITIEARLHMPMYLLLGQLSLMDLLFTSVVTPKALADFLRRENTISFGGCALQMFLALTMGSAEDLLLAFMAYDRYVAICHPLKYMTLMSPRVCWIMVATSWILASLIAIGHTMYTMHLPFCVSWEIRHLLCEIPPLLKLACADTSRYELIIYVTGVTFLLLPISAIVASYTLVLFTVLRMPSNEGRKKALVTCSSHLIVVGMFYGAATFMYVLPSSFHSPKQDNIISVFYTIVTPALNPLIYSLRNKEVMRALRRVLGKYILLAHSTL
Description: as §1, §2

[9] = target: human class II OR identified in the library screening (Homo sapiens, UniProt A6NM03); assay: Confirmatory dose-response analysis of library-hit OR with cognate ligand, wild-type vs C-terminal domain SEQ ID NO: 221 (Table 17); settings: read-out: Potency, EC50 changed C-term; OR2AG2 (Y28C), modified C-terminus SEQ ID NO: 221 (SEQ ID NO: 379);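 also: Wild-type receptor sequences expressed from the pcDNA3.1(+) vector and compared with the C-terminally modified receptors in dose-response tests using each receptor's cognate ligand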
Chain of human class II OR identified in the library screening (Homo sapiens, UniProt A6NM03) (A6NM03 1-292): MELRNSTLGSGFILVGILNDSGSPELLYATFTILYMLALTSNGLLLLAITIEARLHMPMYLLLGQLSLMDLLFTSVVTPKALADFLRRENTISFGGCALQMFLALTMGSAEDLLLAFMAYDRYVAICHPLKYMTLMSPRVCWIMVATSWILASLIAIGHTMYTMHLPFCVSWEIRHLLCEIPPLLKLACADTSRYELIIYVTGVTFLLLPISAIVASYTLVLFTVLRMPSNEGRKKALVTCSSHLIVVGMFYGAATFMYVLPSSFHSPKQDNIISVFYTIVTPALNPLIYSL
Description: as §1, §2

[10] = target: human class II OR identified in the library screening (Homo sapiens, UniProt O60403)
Chain of human class II OR identified in the library screening (Homo sapiens, UniProt O60403) (O60403 whole entry): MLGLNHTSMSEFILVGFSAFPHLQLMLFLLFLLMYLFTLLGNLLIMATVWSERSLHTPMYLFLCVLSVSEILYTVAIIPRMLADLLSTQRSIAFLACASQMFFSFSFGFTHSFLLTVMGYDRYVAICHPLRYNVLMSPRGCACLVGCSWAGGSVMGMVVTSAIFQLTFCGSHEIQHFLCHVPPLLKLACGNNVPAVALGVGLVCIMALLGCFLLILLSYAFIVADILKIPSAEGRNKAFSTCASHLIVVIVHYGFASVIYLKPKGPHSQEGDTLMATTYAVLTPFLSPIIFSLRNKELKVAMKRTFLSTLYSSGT
Description: as §1, §2

[11] = target: T2, OR2T4 (Homo sapiens, UniProt Q8NH00, D328E/G331D/M330K)
T2 sequence (Q8NH00 with tags, fused parts or gaps D328E/M330K/G331D): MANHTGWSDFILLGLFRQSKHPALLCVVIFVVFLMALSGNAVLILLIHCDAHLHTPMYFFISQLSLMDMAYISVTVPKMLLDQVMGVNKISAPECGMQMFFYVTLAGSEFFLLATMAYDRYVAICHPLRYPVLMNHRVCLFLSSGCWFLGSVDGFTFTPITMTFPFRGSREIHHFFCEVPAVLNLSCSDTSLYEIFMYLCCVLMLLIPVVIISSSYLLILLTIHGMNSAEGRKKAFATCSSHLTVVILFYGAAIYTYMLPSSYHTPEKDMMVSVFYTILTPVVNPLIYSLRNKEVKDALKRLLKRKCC

[12] = target: T2, OR2T4; assay: cell-based
[13] = target: T3, human class II OR identified in the library screening (Homo sapiens, UniProt Q8NGP4)
T3 sequence (Q8NGP4 whole entry, the tested form may be a part): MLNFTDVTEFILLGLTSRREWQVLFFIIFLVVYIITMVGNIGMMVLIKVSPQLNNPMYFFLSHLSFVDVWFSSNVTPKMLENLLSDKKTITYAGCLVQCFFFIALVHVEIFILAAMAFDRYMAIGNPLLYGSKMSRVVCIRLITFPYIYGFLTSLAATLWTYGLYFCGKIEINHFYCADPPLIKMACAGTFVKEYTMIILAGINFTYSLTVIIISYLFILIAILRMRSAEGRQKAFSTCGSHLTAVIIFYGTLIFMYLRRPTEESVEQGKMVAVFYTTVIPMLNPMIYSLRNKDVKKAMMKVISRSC
Description: as §1, §2

[14] = target: human class II OR identified in the library screening (Homo sapiens, UniProt Q8NGP4); assay: Confirmatory dose-response analysis of library-hit OR with cognate ligand, wild-type vs C-terminal domain SEQ ID NO: 221 (Table 17); settings: read-out: Potency, EC50 changed C-term; OR5M3, modified C-terminus SEQ ID NO: 221 (SEQ ID NO: 559);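 also: Wild-type receptor sequences expressed from the pcDNA3.1(+) vector and compared with the C-terminally modified receptors in dose-response tests using each receptor's cognate ligand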
Target sequence in this assay (Q8NGP4 1-290): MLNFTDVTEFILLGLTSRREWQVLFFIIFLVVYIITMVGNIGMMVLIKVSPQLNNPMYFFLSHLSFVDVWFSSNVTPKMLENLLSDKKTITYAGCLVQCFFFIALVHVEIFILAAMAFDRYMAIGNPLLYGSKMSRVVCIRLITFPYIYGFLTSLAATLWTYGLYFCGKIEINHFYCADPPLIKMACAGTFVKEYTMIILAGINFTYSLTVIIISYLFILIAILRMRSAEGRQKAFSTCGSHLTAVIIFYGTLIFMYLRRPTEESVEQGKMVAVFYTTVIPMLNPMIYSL
Description: as §1, §2

[15] = target: T3, human class II OR identified in the library screening; assay: as above
Description: as §1, §2

[16] = target: human class II OR identified in the library screening (Homo sapiens, UniProt Q8NH80)
Target sequence in this assay (Q8NH80 whole entry, the tested form may be a part): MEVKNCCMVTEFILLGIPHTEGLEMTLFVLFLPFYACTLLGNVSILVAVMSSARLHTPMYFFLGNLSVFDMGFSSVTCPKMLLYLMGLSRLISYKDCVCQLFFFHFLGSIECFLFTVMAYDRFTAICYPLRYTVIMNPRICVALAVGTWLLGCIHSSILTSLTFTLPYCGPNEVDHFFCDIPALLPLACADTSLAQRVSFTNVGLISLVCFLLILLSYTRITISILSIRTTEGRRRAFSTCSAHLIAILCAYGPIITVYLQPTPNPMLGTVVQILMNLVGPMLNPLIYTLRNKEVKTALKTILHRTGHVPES
Description: as §1, §2

[17] = target: human class II OR identified in the library screening (Homo sapiens, UniProt Q8NH80); assay: Confirmatory dose-response analysis of library-hit OR with cognate ligand, wild-type vs C-terminal domain SEQ ID NO: 221 (Table 17); settings: read-out: Potency, EC50 changed C-term; OR10D3, modified C-terminus SEQ ID NO: 221 (SEQ ID NO: 671);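 also: Wild-type receptor sequences expressed from the pcDNA3.1(+) vector and compared with the C-terminally modified receptors in dose-response tests using each receptor's cognate ligand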
Target sequence in this assay (Q8NH80 1-290): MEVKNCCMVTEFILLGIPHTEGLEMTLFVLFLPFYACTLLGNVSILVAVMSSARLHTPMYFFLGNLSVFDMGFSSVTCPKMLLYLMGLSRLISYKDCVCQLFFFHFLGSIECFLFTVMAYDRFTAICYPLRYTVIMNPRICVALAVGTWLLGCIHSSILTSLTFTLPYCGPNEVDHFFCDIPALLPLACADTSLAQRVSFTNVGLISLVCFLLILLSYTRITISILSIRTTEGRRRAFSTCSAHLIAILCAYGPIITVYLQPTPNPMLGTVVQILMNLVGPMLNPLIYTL
Description: as §1, §2

[18] = target: human class II OR identified in the library screening (Homo sapiens, UniProt A4D2G3)
Chain of human class II OR identified in the library screening (Homo sapiens, UniProt A4D2G3) (A4D2G3 whole entry): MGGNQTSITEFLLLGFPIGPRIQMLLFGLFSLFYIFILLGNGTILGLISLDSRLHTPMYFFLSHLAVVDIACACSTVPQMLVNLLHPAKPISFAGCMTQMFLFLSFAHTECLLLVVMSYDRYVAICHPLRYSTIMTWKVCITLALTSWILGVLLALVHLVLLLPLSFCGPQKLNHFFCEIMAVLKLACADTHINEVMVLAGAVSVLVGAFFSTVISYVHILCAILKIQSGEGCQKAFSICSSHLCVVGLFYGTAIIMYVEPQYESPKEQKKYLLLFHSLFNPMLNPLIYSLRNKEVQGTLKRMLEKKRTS
Description: as §1, §2

[19] = target: human class II OR identified in the library screening (Homo sapiens, UniProt Q96R48)
Chain of human class II OR identified in the library screening (Homo sapiens, UniProt Q96R48) (Q96R48 whole entry): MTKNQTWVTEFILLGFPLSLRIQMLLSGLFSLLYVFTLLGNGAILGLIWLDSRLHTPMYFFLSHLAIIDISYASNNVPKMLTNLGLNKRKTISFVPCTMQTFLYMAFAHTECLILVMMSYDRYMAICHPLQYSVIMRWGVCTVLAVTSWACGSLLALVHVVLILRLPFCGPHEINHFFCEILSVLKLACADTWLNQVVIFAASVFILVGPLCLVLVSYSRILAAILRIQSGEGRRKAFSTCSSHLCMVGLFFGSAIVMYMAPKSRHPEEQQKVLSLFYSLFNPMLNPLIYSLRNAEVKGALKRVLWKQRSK
Description: as §1, §2

[20] = target: human class II OR identified in the library screening (Homo sapiens, UniProt O76100)
Chain of human class II OR identified in the library screening (Homo sapiens, UniProt O76100) (O76100 whole entry): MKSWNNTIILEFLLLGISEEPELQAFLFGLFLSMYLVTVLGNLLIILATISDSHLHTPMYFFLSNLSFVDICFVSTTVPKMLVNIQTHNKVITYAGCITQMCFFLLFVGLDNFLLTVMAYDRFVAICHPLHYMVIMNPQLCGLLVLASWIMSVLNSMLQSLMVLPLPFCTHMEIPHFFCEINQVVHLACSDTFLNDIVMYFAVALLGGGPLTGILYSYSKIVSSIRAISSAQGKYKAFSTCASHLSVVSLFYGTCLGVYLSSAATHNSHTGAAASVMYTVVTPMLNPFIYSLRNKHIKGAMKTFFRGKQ
Description: as §1, §2

[21] = target: human class II OR identified in the library screening (Homo sapiens, UniProt Q15622)
Chain of human class II OR identified in the library screening (Homo sapiens, UniProt Q15622) (Q15622 whole entry, the tested form may be a part): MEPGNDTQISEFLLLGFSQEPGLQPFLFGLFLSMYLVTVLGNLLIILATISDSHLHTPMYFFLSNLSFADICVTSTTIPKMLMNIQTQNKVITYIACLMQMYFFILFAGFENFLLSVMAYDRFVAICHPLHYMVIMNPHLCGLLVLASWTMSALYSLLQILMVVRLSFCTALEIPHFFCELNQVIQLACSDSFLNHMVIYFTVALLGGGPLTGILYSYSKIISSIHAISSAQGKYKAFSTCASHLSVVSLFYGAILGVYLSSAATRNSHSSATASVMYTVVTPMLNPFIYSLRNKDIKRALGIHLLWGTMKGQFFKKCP
Description: as §1, §2

[22] = target: human class II OR identified in the library screening (Homo sapiens, UniProt Q8WZ84); assay: Confirmatory dose-response analysis of library-hit OR with cognate ligand, wild-type vs C-terminal domain SEQ ID NO: 221 (Table 17); settings: OR8D1, wild-type sequence
Chain of human class II OR identified in the library screening (Homo sapiens, UniProt Q8WZ84) (Q8WZ84 whole entry, the tested form may be a part): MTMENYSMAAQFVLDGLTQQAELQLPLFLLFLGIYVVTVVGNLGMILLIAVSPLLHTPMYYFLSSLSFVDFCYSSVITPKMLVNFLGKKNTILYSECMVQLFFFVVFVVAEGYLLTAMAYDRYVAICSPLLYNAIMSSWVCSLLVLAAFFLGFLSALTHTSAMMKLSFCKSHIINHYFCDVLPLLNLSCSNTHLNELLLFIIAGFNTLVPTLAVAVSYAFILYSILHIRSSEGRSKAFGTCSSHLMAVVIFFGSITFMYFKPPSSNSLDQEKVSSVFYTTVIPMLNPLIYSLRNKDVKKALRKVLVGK
Description: as §1, §2

[23] = target: human class II OR identified in the library screening (Homo sapiens, UniProt Q8NGC4); assay: as above; settings: read-out: Potency, EC50 changed C-term; OR10G3 (S73G), modified C-terminus SEQ ID NO: 221 (SEQ ID NO: 673)
Chain of human class II OR identified in the library screening (Homo sapiens, UniProt Q8NGC4) (Q8NGC4 1-291): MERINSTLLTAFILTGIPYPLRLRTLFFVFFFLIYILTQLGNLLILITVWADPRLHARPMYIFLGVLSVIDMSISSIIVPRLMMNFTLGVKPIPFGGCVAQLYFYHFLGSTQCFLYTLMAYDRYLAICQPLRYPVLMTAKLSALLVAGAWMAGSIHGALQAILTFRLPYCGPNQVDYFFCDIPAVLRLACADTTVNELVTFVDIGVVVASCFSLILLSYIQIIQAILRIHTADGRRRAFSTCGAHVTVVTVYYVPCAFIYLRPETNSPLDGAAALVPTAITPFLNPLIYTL
Description: as §1, §2

[24] = OR5M3, modified C-terminus SEQ ID NO: 221 vs wild-type
[25] = OR8D1, modified C-terminus SEQ ID NO: 221 (SEQ ID NO: 631)
[26] = OR8D1, modified C-terminus SEQ ID NO: 221 vs wild-type

CC/C(C)=C/CC[C@H](C)CCO [(E,S)-3,7-dimethylnon-6-en-1-ol]
Detection threshold; concentration for 2-fold induction, wild-type [1]: no
Detection threshold; concentration for 2-fold induction, changed C-term. [2]: 3.0 µM
EC50 [3]: 34.6 µM
Fold improvement efficacy ([4]; OR1D2, modified C-terminus SEQ ID NO: 221 vs wild-type): 14.9 fold

CC(CO)C1=C2C(C)(C)C3CCC2(C3)C(C)(C)CC1 (stereo not shown) [Ambermax]
Comments on efficacy [5]: 3.5-fold lower
ligand specificity in cells expressing OR7A17 and/or OR7C1 [6]: specific ligand for OR7C1
Detection threshold; concentration for 2-fold induction ([7]; changed C-term. SEQ ID NO: 86): 0.17 µM
Fold-improvement potency ([7]; changed C-term. vs wild-type): 2.7
Detection threshold; concentration for 2-fold induction ([7]; wild-type): 2.76 µM

O=C(OCc1ccccc1)c1ccccc1O [Benzyl salicylate]
Detection threshold; concentration for 2-fold induction, wild-type [8]: no
Detection threshold; concentration for 2-fold induction, changed C-term. [2]: 1.3 µM
EC50 [9]: 4.5 µM
Fold improvement efficacy ([4]; OR2AG2 (Y28C), modified C-terminus SEQ ID NO: 221 vs wild-type): 10.2 fold

CC(C)c1ccc2c(c1)OCC(=O)CO2 [Cascalone]
Detection threshold; concentration for 2-fold induction, wild-type [10]: no
Detection threshold; concentration for 2-fold induction, changed C-term. [2]: 108.6 µM
Fold improvement efficacy ([4]; OR10H2, modified C-terminus SEQ ID NO: 221 vs wild-type): 7.0 fold
EC50 ([4]; OR10H2, modified C-terminus SEQ ID NO: 221 (SEQ ID NO: 680)): 226 µM

SC1CCCC1 [Cyclopentanethiol, reference compound]
Comments on efficacy [11]: No induction
ligand identification in sulfur odorant screen ([11]; OR2T4 with optimized C-terminus SEQ ID NO: 86): good ligands
Fold-improvement potency ([11]; changed C-term. vs wild-type): >>22
Fold-improvement threshold ([11]; changed C-term. vs wild-type): >>100
EC50 [12]: > 316 µM

CC1=C(O)C(=O)C(C)O1 (stereo not shown) [Furaneol]
Detection threshold; concentration for 2-fold induction, wild-type [13]: 30.5 µM
Detection threshold; concentration for 2-fold induction, changed C-term. [2]: 0.3 µM
EC50 [14]: 8.7 µM
EC50 [15]: 65.3 µM
Potency, Fold-improvement ([4]; OR5M3, EC50 modified C-terminus SEQ ID NO: 221 vs wild-type): 7.5 fold
Fold improvement efficacy [4, 24]: 16.8 fold
Detection threshold; Fold improvement efficacy [4, 24]: 100.7 fold

CC=Cc1ccc(O)c(OC)c1 [Isoeugenol]
Detection threshold; concentration for 2-fold induction, wild-type [16]: no
Detection threshold; concentration for 2-fold induction, changed C-term. [2]: 1.4 µM
EC50 [17]: 8.4 µM
Fold improvement efficacy ([4]; OR10D3, modified C-terminus SEQ ID NO: 221 vs wild-type): 6.1 fold

CC(C)=CCC(C)C1CC1(C)CO (stereo not shown) [Rosyfolia]
Detection threshold; concentration for 2-fold induction, wild-type [18]: no
Detection threshold; concentration for 2-fold induction, wild-type [19]: no
Fold improvement efficacy ([4]; OR2A5, modified C-terminus SEQ ID NO: 221 vs wild-type): 3.0 fold
Fold improvement efficacy ([4]; OR2A25, modified C-terminus SEQ ID NO: 221 vs wild-type): 7.6 fold
EC50 ([4]; OR2A5, modified C-terminus SEQ ID NO: 221 (SEQ ID NO: 374)): 18 µM
EC50 ([4]; OR2A25, modified C-terminus SEQ ID NO: 221 (SEQ ID NO: 370)): 11 µM

C=C(C)[C@@H]1CC[C@H](C)C2=C(C1)[C@@H](C)CC2=O [Rotundone]
Detection threshold; concentration for 2-fold induction, wild-type [20]: no
Detection threshold; concentration for 2-fold induction, wild-type [21]: no
Fold improvement efficacy ([4]; OR7A5, modified C-terminus SEQ ID NO: 221 vs wild-type): 24. fold
Fold improvement efficacy ([4]; OR7A10, modified C-terminus SEQ ID NO: 221 vs wild-type): 5.9 fold
EC50 ([4]; OR7A5, modified C-terminus SEQ ID NO: 221 (SEQ ID NO: 612)): 5.6 µM
EC50 ([4]; OR7A10, modified C-terminus SEQ ID NO: 221 (SEQ ID NO: 610)): 0.16 µM

CC1=C(O)C(=O)OC1C (stereo not shown) [Sotolone]
Detection threshold; concentration for 2-fold induction, wild-type [22]: 2.5 µM
Potency, Fold-improvement ([4]; OR8D1, EC50 modified C-terminus SEQ ID NO: 221 vs wild-type): 2.5 fold
Detection threshold; concentration for 2-fold induction, changed C-term. [4, 25]: 0.48 µM
Fold improvement efficacy [4, 26]: 2.1 fold
Detection threshold; Fold improvement efficacy [4, 26]: 5.2 fold
EC50 [4, 25]: 7.5 µM

COc1cc(C=O)ccc1O [Vanillin]
EC50 [23]: 15.3 µM
